Results taken from patent publication US20210317090A1, “AMINO ACID DEPLETION AGENTS AS ANTIPROLIFERATIVE AGENTS” (University of Central Florida Research Foundation, Inc., priority 2018, published 2021).

How the values were obtained:
L3.6pl cells [1] = assay: Intracellular polyamine and Ant-44 levels (N-dansylation, HPLC) in L3.6pl cells; format: cell-based, human; settings: Ant-44 only control (2 μM), 72 h
Experimental: One explanation for the enhanced potency was that compound 10 (1666.255) increased polyamine import and, as a result, may have increased intracellular Ant-44 levels. To test this hypothesis, L3.6pl cells were dosed with a fixed concentration of Ant-44 (2 μM) alone and in combination with increasing concentrations of compound 10 (1666.255) to explore how this combination therapy affected intracellular polyamine pools and Ant-44 import.
FIG. 7 is an example according to various embodiments, illustrating both single and combination therapies in L3.6pl cells with Ant-44 and compound 10 (1666.255) after 72 h incubation. Polyamine and Ant-44 levels (expressed as nmoles/mg protein) and relative % viability versus an untreated control were observed after 72 h incubation at 37° C. The untreated control was run in parallel and polyamine levels determined in duplicate and % cell viability in triplicate. Ant-44 was dosed at a fixed concentration of 2 μM and compound 10 (1666.255) at increasing concentrations. Cell viability tracked well with total intracellular polyamine levels (sum of putrescine, spermidine and spermine).
It was concluded that compound 10 was neither acting as a PTI nor as a polyamine import agonist. How then could it lead to intracellular polyamine depletion? […] To test this hypothesis, L3.6pl cells were dosed with increasing concentrations of compound 10 (1666.255) without Ant44. If compound 10 (1666.255) was acting on polyamine pools, one should see a reduction in total polyamine levels as well as decreased cell viability in a dose dependent manner upon increasing levels of 10. Therefore, the toxicity of compound 10 and intracellular polyamine levels after 72 h exposure to 10 were measured (FIG. 8).
FIG. 8 is an example according to various embodiments, illustrating intracellular polyamine levels (expressed as nmoles polyamine/mg protein) in L3.6pl cells dosed with increasing concentrations of compound 10 (1666.255) after cells were incubated for 72 h at 37° C. The untreated control was run in parallel and polyamine levels determined in duplicate via N-dansylation and HPLC. The data was averaged and reported as nmol polyamine (PA)/mg protein.
This example illustrates aspects according to various embodiments pertaining to a 72 h experiment with Compound 10 in L3.6pl cells. Ten milliliters of a cell suspension containing L3.6pl human pancreatic cancer cells (50,000 cells/mL) and aminoguanidine (1 mM) were placed in treated plastic Petri dishes (d=9 cm) and incubated overnight at 37° C. After 24 h, the cells were dosed with compound 10 at 2 μM, 5 μM, or 7 μM. (Note: Stock solutions of 10 at 2, 5, and 7 mM were dissolved in phosphate buffered saline (PBS) and were filtered through a 0.2 μm filter prior to use. The experiments were maintained with a total volume of 10.01 mL where 10 mL of the cell suspension was placed in a plastic dish and each compound or the equivalent PBS volume was added to make up the total volume 10.01 mL for each dish. For example, for the control experiment PBS (10 μL) was added to make up the total volume (10 mL+10 μL=10.01 mL). After 72 h incubation, the cells were collected first by pipetting off the supernatant containing floating dead cells from the culture dish as well as media and placing them into 15 mL tubes. The supernatant containing floating cells was centrifuged (4 min at 1,000 rpm). The cell-free supernatant (supernatant #1) was collected into a new 15 mL tube and quantified (˜8.6 mL) and was then stored frozen and was later quantified by LCMS to investigate the media composition of particular polyamine and amino acid analytes. The attached cells on the dish were washed with PBS (5 mL). The PBS wash was removed by suction and additional PBS (2 mL) was added and again suctioned off to provide twice-washed cells still adhered to the dish. Trypsin (2 mL) was then added to each dish and incubated (3-5 min) until all the cells were detached. Fresh media (8 mL) was added to quench the trypsin. […]

[2] = tested on: polyamine transport system (PTS); settings: CHO vs CHO-MG (ref 17); cited from earlier work
[3] = tested on: L3.6pl human pancreatic cancer cells; assay: Cytotoxicity dose-response (MTS) in L3.6pl cells; format: cell-based; settings: L3.6pl cells, previously determined; read-out: 72 h IC50
Experimental: L3.6pl Studies. Compounds 9 and 10 were evaluated in the metastatic human pancreatic cancer cell line, L3.6pl. L3.6pl has a K-ras mutation, and high polyamine uptake activity.^7 A dose-response curve was obtained for each compound in L3.6pl cells to determine the 72 h L3.6pl IC50 value, described as the dose at which L3.6pl cells were 50% viable compared to the untreated control.
Regarding the biological studies performed in the following examples, it is noted that CHO K1, CHO-MG, and L3.6pl cells were grown in RPMI 1640 medium supplemented with 10% fetal bovine serum (FBS) and 1% penicillin/streptomycin. All cells were grown at 37° C. under a humidified 5% CO2 atmosphere. Aminoguanidine (1 mM used for CHO K1 and CHOMG cells and 250 μM for L3.6pl) was added to the growth medium to prevent oxidation of the compounds of the bovine serum amine oxidase enzyme that is present in calf serum. The cells used were in early to mid log phase and CHO and CHOMG were plated out at 1000 cells/well, whereas the L3.6pl cells were plated at 500 cells/well in a 96 well plate format.
This example illustrates aspects according to various embodiments pertaining to IC50 determinations and cell viability studies. Cell growth was assayed in sterile 96-well microtiter plates (Costar 3599, Corning, N.Y.). CHO K1 or CHOMG cells were plated at 1,000 cells/70 μL and L3.6pl cells at 500 cells/70 μL. The drug solutions of appropriate concentration in phosphate buffered saline (PBS) were added 10 μL per well after overnight incubation. After drug exposure (e.g., for 48 h for CHO K1 and CHO-MG and 48 h or 72 h for L3.6pl), cell growth was determined by measuring formazan formation from the 3-(4,5dimethylthiazol-2-yl)-5-(3-carboxymethoxyphenyl)-2-(4-sulfenyl)-2H tetrazolium, inner salt (MTS) using SynergyMx Biotek microplate reader for absorbance (490 nm) measurements.^27 All experiments were run in triplicate.

L3.6pl cells [4] = settings: CDAP 100 μM (ref 10); cited from earlier work
[5] = tested on: L3.6pl human pancreatic cancer cells; settings: L3.6pl cells, CDAP 100 μM (ref 10); cited from earlier work

Row | Compound | intracellular level of Ant-44 (L3.6pl cells [1]) | preference for CHO cell line over CHO-MG (IC50 comparison) [2] | IC50 [3] | Intracellular Spermine (L3.6pl cells [4]) | viability [5]
1 | Cl.NCCCCNCCCCNCc1c2ccccc2cc2ccccc12 [Ant-44, reference compound] | 2.15±0.10 nmol Ant44/mg protein | ~150 fold | 4 µM | – | –
2 | NCCCNC1CCCCC1 [CDAP, N-(3-aminopropyl)-cyclohexylamine] | – | – | – | no detectable spermine | 100%
